Source: patent US11077120B2, “Prostaglandin receptor EP2 antagonists, derivatives, compositions, and uses related thereto” (Emory University, priority 2014, dated 2021)
Like-named read-outs stand apart in the source and are kept apart here.

How the values were obtained:
[1] = biological target: T1, human DP1 receptors (Homo sapiens, UniProt Q13258); test: cell-based cAMP TR-FRET assay, DP1 (agonist BW245C); settings: for selectivity against DP1: EP2 over DP1
T1 construct: expressed in transfected cells
T1 sequence (Q13258 1-359): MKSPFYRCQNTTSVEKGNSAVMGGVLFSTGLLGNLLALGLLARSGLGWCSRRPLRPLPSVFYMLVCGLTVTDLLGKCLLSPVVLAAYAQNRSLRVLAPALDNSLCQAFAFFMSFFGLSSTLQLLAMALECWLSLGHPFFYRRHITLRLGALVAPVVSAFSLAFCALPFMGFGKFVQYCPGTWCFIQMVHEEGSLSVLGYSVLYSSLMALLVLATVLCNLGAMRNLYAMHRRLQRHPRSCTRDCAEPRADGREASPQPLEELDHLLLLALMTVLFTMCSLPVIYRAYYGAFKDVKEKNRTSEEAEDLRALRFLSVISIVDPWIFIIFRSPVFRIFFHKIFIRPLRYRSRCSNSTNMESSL
Procedure: (§1) The synthesis was carried out starting from commercially available 2-methyl indole or 2-trifluoromethyl indoles (11a-c), which on treatment with bromoacetonitrile provided intermediates (12a-c), which then were subjected to lithium aluminum hydride to reduce cyanide to amines. […] Synthesized derivatives were tested by using a cAMP-derived TR-FRET assay, at single concentration (1 μM) to observe a rightward shift of PGE2 (an EP2 agonist) concentration response curve in a C6G cell line that overexpresses human EP2 receptors.
Intracellular cAMP was measured with a cell-based homogeneous time-resolved fluorescence resonance energy transfer (TR-FRET) method (Cisbio Bioassays). […] Endogenous cAMP produced by cells competes with labeled cAMP for binding to the cAMP antibody and thus reduces the FRET signal. Cells stably expressing human DP1, EP2, EP4, or IP receptors were seeded into 384-well plates in 30 μl complete medium (4,000 cells/well) and grown overnight. The medium was carefully withdrawn and 10 μl Hanks' Buffered Salt Solution (HBSS) (Hyclone) containing 20 μM rolipram was added into the wells to block phosphodiesterases. The cells were incubated at room temperature for 0.5-1 h and then treated with vehicle or test compound for 10 min before addition of increasing concentrations of appropriate agonist: BW245C for DP1, PGE2 for EP2 and EP4, or iloprost for IP. The cells were incubated at room temperature for 40 min, then lysed in 10 μl lysis buffer containing the FRET acceptor cAMP-d2 and 1 min later another 10 μl lysis buffer with anti-cAMP-Cryptate was added. […] The FRET signal was expressed as: F665/F590×10^4.

[2] = biological target: T2, human EP2 receptors (Homo sapiens, UniProt P43116); test: cell-based cAMP TR-FRET assay, rightward shift of PGE2 concentration response curve (Schild KB), EP2
T2 construct: expressed in transfected cells
T2 sequence (P43116 whole entry): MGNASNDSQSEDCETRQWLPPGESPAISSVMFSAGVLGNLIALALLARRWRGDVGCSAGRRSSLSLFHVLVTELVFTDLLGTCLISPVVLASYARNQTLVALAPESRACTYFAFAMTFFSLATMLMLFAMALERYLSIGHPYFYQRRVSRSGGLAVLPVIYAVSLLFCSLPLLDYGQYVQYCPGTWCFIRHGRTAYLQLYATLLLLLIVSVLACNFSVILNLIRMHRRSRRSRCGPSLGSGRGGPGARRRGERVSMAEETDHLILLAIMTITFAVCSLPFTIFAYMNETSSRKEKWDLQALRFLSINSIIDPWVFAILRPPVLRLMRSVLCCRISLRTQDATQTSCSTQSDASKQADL
Procedure: KB value indicates the antagonist concentration required for a twofold rightward shift in the PGE2 dose-response curve. Thus, a lower KB value indicates a higher inhibitory potency.
as §1
A lower KB value indicates a higher inhibitory potency.
(§2) Intracellular cAMP was measured with a cell-based homogeneous time-resolved fluorescence resonance energy transfer (TR-FRET) method (Cisbio Bioassays). […] Endogenous cAMP produced by cells competes with labeled cAMP for binding to the cAMP antibody and thus reduces the FRET signal. Cells stably expressing human DP1, EP2, EP4, or IP receptors were seeded into 384-well plates in 30 μl complete medium (4,000 cells/well) and grown overnight. The medium was carefully withdrawn and 10 μl Hanks' Buffered Salt Solution (HBSS) (Hyclone) containing 20 μM rolipram was added into the wells to block phosphodiesterases. The cells were incubated at room temperature for 0.5-1 h and then treated with vehicle or test compound for 10 min before addition of increasing concentrations of appropriate agonist: BW245C for DP1, PGE2 for EP2 and EP4, or iloprost for IP. The cells were incubated at room temperature for 40 min, then lysed in 10 μl lysis buffer containing the FRET acceptor cAMP-d2 and 1 min later another 10 μl lysis buffer with anti-cAMP-Cryptate was added. After 60-90 min incubation at room temperature, the FRET signal was measured by an Envision 2103 Multilabel Plate Reader (PerkinElmer Life Sciences) with a laser excitation at 337 nm and dual emissions at 665 nm and 590 nm for d2 and Cryptate (50 s delay), respectively. The FRET signal was expressed as: F665/F590×10^4.

[3] = biological target: T3, human EP4 receptors (Homo sapiens, UniProt P35408); test: cell-based cAMP TR-FRET assay, EP4 (agonist PGE2); settings: for Selective Index EP4/EP2 / potency estimated from few doses: Table 2; for potency estimated from few doses: extrapolated Schild KB from single concentration of 10 μM
T3 construct: expressed in transfected cells
T3 sequence (P35408 whole entry): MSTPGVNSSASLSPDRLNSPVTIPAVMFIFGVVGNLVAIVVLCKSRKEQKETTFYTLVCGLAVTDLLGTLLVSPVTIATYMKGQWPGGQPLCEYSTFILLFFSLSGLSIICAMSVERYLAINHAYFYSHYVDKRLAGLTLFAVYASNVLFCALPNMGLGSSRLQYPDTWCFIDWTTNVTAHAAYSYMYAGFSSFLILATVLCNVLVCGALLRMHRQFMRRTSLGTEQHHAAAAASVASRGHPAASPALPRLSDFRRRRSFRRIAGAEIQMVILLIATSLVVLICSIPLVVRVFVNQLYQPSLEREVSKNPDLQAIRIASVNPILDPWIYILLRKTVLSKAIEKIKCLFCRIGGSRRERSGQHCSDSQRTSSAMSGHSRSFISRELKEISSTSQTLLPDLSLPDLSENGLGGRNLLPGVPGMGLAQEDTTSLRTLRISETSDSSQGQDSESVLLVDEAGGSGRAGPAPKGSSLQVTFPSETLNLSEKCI
Procedure: (§3) These derivatives were selected for testing against EP4 and IP receptors. Cell lines were created that overexpress EP4 receptors, or IP receptors on C6-glioma cells. A cAMP-derived TR-FRET assay was developed using agonists PGE2 (for EP4) and iloprost (for IP), similar to EP2 assay.
as §2

[4] = test system: C6-glioma cells; settings: rat
Procedure: CC50 are average one measurement run in triplicate.
Several of compounds were examined against EP4 and IP receptors at single concentration of 10 μM.

[5] = biological target: T4, human IP receptors (Homo sapiens, UniProt P43119); test: cell-based cAMP TR-FRET assay, IP (agonist iloprost); settings: for Selective Index (IP/EP2) / potency estimated from few doses: Table 2; for potency estimated from few doses: extrapolated Schild KB from single concentration of 10 μM
T4 construct: expressed in transfected cells
T4 sequence (P43119 whole entry): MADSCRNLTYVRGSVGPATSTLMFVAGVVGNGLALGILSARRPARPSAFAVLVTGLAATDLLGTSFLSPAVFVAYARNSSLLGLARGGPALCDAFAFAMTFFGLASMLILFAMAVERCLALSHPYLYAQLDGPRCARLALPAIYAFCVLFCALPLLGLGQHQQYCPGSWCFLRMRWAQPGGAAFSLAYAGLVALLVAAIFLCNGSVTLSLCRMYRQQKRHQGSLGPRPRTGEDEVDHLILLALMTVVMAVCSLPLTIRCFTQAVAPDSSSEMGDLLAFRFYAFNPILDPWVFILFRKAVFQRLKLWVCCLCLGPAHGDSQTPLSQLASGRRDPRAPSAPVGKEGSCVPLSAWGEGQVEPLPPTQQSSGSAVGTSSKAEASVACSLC
Procedure: as §3, §2

[6] = Table 1, Schild KB from single antagonist concentration 1 μM, average of 2-3 measurements in duplicate, read-out: EP2 KB
[7] = Table 2, average of 2-3 independent experiments in duplicate, read-out: KB EP2

Row | Structure (SMILES) | Kb ([1]; Table 6, read-out: DP1 KB) [µM] | Kb ([2]; Table 6, read-out: EP2 KB) [µM] | potency estimated from few doses [3] [µM] | CC50 [4] [µM] | potency estimated from few doses [5] [µM] | other results
1 | Cc1cc2ccccc2n1CCNC(=O)c1ccc(-n2cc(CO)nn2)cc1 [TG8-60] | 2.42 | 0.0282 | – | – | – | –
2 | Cc1cc2ccccc2n1CCNC(=O)c1ccc(OCCO)cc1 [TG8-12] | 2.74 | 0.133 | – | – | – | –
3 | Cc1cc2ccccc2n1CCNC(=O)c1ccc(N2CCCCCC2)cc1 [Compound 7o] | – | – | 23.6 | 327 | 8.5 | Selective Index EP4/EP2 [3]: 1,045; Therapeutic Index (CC50/EP2 KB) [4]: 14,470; Selective Index (DP1/EP2) ([1]; Table 2): 342; Selective Index (IP/EP2) [5]: 375
4 | Cc1cc2ccccc2n1CCNC(=O)c1ccc(-c2cn(Cc3ccccc3)nn2)cc1 [TG8-55] | 6.96 | 0.305 | – | – | – | –
5 | COc1ccc(C(=O)NCCn2c(C)cc3ccccc32)cc1OC [Compound 6b] | 1.35 | 0.0267 | – | – | – | Kb [2, 6]: 0.0223 µM
6 | CCCN(CCC)c1ccc(C(=O)NCCn2c(C)cc3ccccc32)cc1 [Compound 6g] | – | – | 15.5 | 332 | 1.12 | Selective Index EP4/EP2 [3]: 1320; Therapeutic Index (CC50/EP2 KB) [4]: 28,130; Selective Index (DP1/EP2) ([1]; Table 2): 298; Selective Index (IP/EP2) [5]: 95
7 | Cc1cc2ccccc2n1CCNC(=O)c1ccc(N2CCCC2)cc1 [Compound 7j, N-(2-(2-Methyl-1H-indol-1-yl)ethyl)-4-(pyrrolidin-1-yl)benzamide] | – | – | 28.7 | 337 | 14.2 | Selective Index EP4/EP2 [3]: 1,160; Therapeutic Index (CC50/EP2 KB) [4]: 16,120; selectivity against DP1 [1]: 516 fold; Selective Index (DP1/EP2) ([1]; Table 2): >516; Kb ([1]; Table 2, read-out: KB DP1): > 10 µM; Selective Index (IP/EP2) [5]: 570; Kb [2, 7]: 0.0247 µM
8 | O=C(NCCn1c(C(F)(F)F)cc2ccccc21)c1ccc(-c2nnn[nH]2)cc1 [TG8-47] | 0.795 | 1.11 | – | – | – | –
9 | Cc1cc2ccccc2n1CCNC(=O)c1ccc(N=[N+]=[N-])cc1 [TG7-297] | 1.89 | 0.0894 | – | – | – | –
10 | Cc1cc2ccccc2n1CCNC(=O)c1ccc2c(c1)n(C)c(=O)n2C [Compound 8a, 1,3-Dimethyl-N-(2-(2-methyl-1H-indol-1-yl)ethyl)-2-oxo-2,3-dihydro-1H-benzo[d]imidazole-5-carboxamide] | – | – | 36.1 | 154 | 25.2 | Selective Index EP4/EP2 [3]: 1730; Therapeutic Index (CC50/EP2 KB) [4]: 7,370; concentration showing an effect on cell viability [4]: > 100 µM; Selective Index (DP1/EP2) ([1]; Table 2): 300; Kb ([1]; Table 2, read-out: KB DP1): 6.29 µM; Selective Index (IP/EP2) [5]: 1200; Kb [2, 6]: 0.0209 µM
11 | CCOC(=O)C1CCN(c2ccc(C(=O)NCCn3c(C(F)(F)F)cc4ccccc43)cc2)CC1 [TG8-42] | 3.24 | 2.74 | – | – | – | –
12 | Cc1cc2cc(Br)ccc2n1CCNC(=O)c1ccc(N2CCOCC2)cc1 [TG7-300] | 18.9 | 0.247 | – | – | – | –
13 | C#Cc1ccc(C(=O)NCCn2c(C)cc3ccccc32)cc1 [TG8-52] | 0.609 | 0.0775 | – | – | – | –
14 | Cc1cc2ccccc2n1CCNC(=O)c1ccc(N(C)C)cc1 [Compound 6e, 4-(Dimethylamino)-N-(2-(2-methyl-1H-indol-1-yl)ethyl)benzamide] | – | – | 51 | 310 | 4.7 | Kb ([1]; Table 2, read-out: KB DP1): 6.43 µM; Kb [2, 6]: 0.0098 µM
15 | CCN(CC)c1ccc(C(=O)NCCn2c(C)cc3ccccc32)cc1 [Compound 6f, 4-(Diethylamino)-N-(2-(2-methyl-1H-indol-1-yl)ethyl)benzamide] | – | – | 31.3 | 320 | 8 | Selective Index EP4/EP2 [3]: 11,590; Therapeutic Index (CC50/EP2 KB) [4]: 118,520; selectivity against DP1 [1]: > 1200 fold; Selective Index (DP1/EP2) ([1]; Table 2): 1,220; Kb ([1]; Table 2, read-out: KB DP1): 3.19 µM; selectivity against the IP receptor ([5]; EP2 over IP): ~3000 fold; Selective Index (IP/EP2) [5]: 2,960; fold improved/higher EP2 potency in comparison to 6b [2]: ~8 fold; mechanism of antagonism of EP2 ([2]; Schild regression analysis): competitive; Kb [2, 7]: 0.0027 µM; Kb ([2]; single concentration values, read-out: EP2 potency (Schild KB)): ~0.01 µM
16 | Cc1cc2ccccc2n1CCNC(=O)c1cc(-c2ccccc2)no1 [TG7-242] | – | 0.0295 | – | – | – | DP1 KB ([1]; Table 6): Inactive
17 | Cc1cc2ccccc2n1CCNC(=O)c1ccc(N2CCC(O)CC2)cc1 [Compound 7w] | – | – | 70.3 | 163 | 18.1 | Selective Index EP4/EP2 [3]: 2,629; Therapeutic Index (CC50/EP2 KB) [4]: 6,082; concentration showing an effect on cell viability [4]: > 100 µM; Selective Index (DP1/EP2) ([1]; Table 2): 172; Selective Index (IP/EP2) [5]: 675
18 | Cc1cc2ccccc2n1CCNC(=O)c1cnc(N2CCC(CO)CC2)nc1 [TG8-59] | 5.85 | 0.159 | – | – | – | –
19 | Cc1cc2ccccc2n1CCNC(=O)c1cc(-c2ccc(F)cc2)n[nH]1 [TG7-245] | 140 | 0.0227 | – | – | – | –
20 | Cc1cc2ccccc2n1CCNC(=O)c1ccc(N2CCCCC2)cc1 [Compound 7k, N-(2-(2-Methyl-1H-indol-1-yl)ethyl)-4-(piperidin-1-yl)benzamide] | – | – | 30.2 | 315 | 3.4 | Selective Index EP4/EP2 [3]: 3,210; Therapeutic Index (CC50/EP2 KB) [4]: 33,510; Selective Index (DP1/EP2) ([1]; Table 2): 273; Kb ([1]; Table 2, read-out: KB DP1): 2.57 µM; Selective Index (IP/EP2) [5]: 360; fold improved/higher EP2 potency in comparison to 6b [2]: about 2.3 fold; Kb [2, 6]: 0.0094 µM
21 | Cc1cc2ccccc2n1CCNC(=O)c1ccc(N2CCN(C)CC2)c(F)c1 [Compound 7u] | – | – | 4.76 | 300 | 64 | selectivity over EP4 ([3]; EP2 over EP4): 100 fold; Selective Index EP4/EP2 [3]: 106; Therapeutic Index (CC50/EP2 KB) [4]: 6,660; Selective Index (DP1/EP2) ([1]; Table 2): 22; Selective Index (IP/EP2) [5]: 1,420
22 | O=C(NCCn1c(C(F)(F)F)cc2ccccc21)c1ccc(N2CCC(C(=O)O)CC2)cc1 [TG8-46] | 1.06 | 0.413 | – | – | – | –
23 | Cc1cc2ccccc2n1C1CCCN(C(=O)c2ccc(N3CCOCC3)cc2)C1 (centres unmarked) [TG7-292] | – | 1.79 | – | – | – | DP1 KB ([1]; Table 6): Inactive
24 | Cc1[nH]c2ccccc2c1CCNC(=O)c1ccc(N2CCOCC2)cc1 [Compound 9c] | – | – | – | 311 | – | –
25 | Cc1[nH]c2ccccc2c1CCNC(=O)c1ccc(N(C)C)cc1 [Compound 8z] | – | – | 16.4 | 320 | 63.1 | –
26 | Cc1cc2ccccc2n1CCNC(=O)c1ccc(OCCO)c(OCCO)c1 [TG8-3] | 62.9 | 0.271 | – | – | – | –
27 | Cc1cc2ccccc2n1CCNC(=O)c1ccc(-c2cn(COCc3ccccc3)nn2)cc1 [TG8-54] | 3.39 | 0.164 | – | – | – | –
